Assay [1] deals with T1, Serine/threonine-protein kinase greatwall (Homo sapiens) (UniProt Q96GX5).
T1 sequence (whole entry): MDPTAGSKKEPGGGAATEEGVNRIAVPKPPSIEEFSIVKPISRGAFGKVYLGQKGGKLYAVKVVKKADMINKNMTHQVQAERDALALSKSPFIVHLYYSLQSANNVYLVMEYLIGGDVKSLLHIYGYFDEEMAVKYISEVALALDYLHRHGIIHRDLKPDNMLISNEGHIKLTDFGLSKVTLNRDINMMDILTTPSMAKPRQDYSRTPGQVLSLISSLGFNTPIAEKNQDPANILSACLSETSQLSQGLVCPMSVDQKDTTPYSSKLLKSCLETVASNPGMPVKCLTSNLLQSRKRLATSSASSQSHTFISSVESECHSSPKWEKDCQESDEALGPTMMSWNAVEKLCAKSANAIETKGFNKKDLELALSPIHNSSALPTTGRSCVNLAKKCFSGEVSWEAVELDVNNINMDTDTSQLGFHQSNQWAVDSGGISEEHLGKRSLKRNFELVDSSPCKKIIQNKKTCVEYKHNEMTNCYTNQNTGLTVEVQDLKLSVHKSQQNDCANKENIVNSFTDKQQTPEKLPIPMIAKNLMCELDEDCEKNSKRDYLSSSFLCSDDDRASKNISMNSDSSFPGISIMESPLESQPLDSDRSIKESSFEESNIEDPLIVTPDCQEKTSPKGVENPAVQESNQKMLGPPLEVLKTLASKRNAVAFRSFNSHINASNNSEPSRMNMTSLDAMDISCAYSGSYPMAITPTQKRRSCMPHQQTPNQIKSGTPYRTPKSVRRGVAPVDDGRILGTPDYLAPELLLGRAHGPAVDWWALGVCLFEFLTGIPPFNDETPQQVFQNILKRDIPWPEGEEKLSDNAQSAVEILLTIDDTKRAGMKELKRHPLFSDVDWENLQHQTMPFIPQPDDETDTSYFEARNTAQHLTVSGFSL
Briefly: Selectivity interaction (LanthaScreen Eu Kinase Binding Assay) EUB0001632a MASTL. To be noted: at 10 µM.

Assay [2] addresses T2, Serine/threonine-protein kinase RIO1 (Homo sapiens) (UniProt Q9BRS2).
T2 sequence (whole entry): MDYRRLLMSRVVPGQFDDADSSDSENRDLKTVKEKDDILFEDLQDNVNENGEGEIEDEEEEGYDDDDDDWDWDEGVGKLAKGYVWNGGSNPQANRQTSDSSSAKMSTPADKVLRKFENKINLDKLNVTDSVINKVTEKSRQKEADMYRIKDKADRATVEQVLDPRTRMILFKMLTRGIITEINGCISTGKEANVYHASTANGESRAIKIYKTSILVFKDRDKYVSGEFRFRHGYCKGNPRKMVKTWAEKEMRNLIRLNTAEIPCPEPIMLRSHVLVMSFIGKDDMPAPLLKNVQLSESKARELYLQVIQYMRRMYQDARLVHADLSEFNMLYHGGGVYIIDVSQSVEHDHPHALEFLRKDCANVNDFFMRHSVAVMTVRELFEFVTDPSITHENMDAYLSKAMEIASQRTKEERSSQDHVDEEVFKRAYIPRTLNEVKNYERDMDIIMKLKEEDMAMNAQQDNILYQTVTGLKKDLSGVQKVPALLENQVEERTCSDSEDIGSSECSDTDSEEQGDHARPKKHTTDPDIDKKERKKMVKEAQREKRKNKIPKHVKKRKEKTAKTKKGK
The assay can be described thus: Selectivity interaction (KinomeScan (DiscoverX)) EUB0001079a RIOK1. To be noted: at 1 µM.

The target in assay [3] is Dual specificity testis-specific protein kinase 1 (Homo sapiens) (UniProt Q15569). The assay can be described thus: Selectivity interaction (KinomeScan (DiscoverX)) EUB0001079a TESK1. The note with it: at 1 µM.
Dual specificity testis-specific protein kinase 1 (Homo sapiens), sequence (Q15569 whole entry, looked up): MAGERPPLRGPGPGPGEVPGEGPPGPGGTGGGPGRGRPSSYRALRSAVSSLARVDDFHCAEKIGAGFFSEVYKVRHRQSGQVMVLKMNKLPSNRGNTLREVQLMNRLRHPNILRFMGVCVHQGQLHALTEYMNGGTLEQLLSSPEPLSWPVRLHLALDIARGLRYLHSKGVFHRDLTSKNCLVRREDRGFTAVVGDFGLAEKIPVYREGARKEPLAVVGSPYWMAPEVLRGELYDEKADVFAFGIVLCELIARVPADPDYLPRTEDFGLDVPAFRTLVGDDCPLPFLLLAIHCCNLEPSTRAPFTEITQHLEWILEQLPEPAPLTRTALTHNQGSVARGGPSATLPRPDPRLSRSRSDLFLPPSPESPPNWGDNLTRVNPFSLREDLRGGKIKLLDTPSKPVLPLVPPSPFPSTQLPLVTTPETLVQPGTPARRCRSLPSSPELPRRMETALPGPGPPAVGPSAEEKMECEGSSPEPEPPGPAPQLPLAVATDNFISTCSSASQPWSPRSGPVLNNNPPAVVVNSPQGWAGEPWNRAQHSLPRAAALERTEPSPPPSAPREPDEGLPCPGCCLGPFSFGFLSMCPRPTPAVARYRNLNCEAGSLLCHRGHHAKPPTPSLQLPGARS
The target of assay [4] is Proto-oncogene tyrosine-protein kinase receptor Ret (Homo sapiens, UniProt P07949). The assay can be described thus: Selectivity interaction (KinaseProfiler screening (Millipore)) EUB0000601a RET. To be noted: at 3 µM.
Proto-oncogene tyrosine-protein kinase receptor Ret, sequence (P07949 whole entry): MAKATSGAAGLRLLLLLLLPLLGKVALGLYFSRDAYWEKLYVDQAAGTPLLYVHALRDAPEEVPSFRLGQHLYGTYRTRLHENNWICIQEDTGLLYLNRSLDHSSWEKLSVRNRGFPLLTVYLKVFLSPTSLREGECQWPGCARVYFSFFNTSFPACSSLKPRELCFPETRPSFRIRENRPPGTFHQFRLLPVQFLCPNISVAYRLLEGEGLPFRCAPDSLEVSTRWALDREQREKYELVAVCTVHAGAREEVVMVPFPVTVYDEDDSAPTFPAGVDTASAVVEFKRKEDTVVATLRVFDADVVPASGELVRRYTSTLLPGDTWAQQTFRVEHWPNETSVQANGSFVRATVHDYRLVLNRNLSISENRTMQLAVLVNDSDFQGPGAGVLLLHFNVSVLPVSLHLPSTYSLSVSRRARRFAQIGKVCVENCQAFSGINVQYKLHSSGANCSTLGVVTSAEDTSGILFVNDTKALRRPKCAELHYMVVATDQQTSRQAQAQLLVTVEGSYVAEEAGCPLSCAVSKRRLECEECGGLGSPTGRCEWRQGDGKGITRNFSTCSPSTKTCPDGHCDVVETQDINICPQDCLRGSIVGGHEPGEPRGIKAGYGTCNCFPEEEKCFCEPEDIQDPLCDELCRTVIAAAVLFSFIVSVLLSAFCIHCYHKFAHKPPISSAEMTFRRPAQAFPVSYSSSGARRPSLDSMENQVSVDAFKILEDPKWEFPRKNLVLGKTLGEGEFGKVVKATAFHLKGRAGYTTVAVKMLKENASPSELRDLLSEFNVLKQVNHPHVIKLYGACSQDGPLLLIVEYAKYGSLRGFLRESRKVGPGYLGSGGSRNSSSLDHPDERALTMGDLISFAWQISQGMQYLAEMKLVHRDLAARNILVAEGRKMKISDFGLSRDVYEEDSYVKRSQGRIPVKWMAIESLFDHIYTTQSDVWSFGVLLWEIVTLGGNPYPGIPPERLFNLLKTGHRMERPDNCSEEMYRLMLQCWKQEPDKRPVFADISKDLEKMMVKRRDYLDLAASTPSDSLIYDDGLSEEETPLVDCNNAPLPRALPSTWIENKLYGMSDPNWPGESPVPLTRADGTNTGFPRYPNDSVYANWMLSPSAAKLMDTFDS
Assay [5] has as its target Transcription intermediary factor 1-beta (Homo sapiens) (UniProt Q13263). Briefly: Selectivity interaction (Bromodomain panel (DSF asssay)) EUB0000270b TRIM28.
The target in assay [6] is T3, Serine/threonine-protein kinase TAO3 (Homo sapiens) (UniProt Q9H2K8).
T3 sequence (whole entry): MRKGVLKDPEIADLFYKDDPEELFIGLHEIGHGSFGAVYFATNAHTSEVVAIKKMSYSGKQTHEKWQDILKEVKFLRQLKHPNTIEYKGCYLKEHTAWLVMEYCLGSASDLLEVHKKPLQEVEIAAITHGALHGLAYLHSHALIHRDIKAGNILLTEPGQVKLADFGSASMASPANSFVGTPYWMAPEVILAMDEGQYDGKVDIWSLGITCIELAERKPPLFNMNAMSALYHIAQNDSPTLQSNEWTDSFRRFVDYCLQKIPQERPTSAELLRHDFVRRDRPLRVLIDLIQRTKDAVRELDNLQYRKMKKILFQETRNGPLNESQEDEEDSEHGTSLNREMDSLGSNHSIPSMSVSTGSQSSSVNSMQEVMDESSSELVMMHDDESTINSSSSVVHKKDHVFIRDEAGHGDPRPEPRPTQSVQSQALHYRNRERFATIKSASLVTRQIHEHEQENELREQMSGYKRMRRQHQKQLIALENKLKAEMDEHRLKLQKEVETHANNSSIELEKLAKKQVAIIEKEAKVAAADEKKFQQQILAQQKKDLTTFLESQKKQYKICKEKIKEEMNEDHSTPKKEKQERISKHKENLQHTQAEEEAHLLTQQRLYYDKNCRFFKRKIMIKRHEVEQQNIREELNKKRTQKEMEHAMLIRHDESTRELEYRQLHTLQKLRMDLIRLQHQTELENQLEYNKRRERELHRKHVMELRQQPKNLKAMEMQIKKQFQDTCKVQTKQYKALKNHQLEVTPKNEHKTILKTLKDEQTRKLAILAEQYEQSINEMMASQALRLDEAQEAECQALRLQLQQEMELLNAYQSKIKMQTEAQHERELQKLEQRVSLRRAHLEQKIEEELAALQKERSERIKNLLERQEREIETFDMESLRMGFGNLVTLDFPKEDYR
Briefly: Selectivity interaction (Upstate Kinase Profiler service (Millipore)) EUB0000056c TAOK3. The note with it: at 1 µM.

This passage reports % of inhibition, % of control and dTM results from ChEMBL document CHEMBL5465560, “Selectivity Literature for EUbOPEN Chemogenomic Library” (2024).

Transcription intermediary factor 1-beta (Homo sapiens), sequence (Q13263 whole entry): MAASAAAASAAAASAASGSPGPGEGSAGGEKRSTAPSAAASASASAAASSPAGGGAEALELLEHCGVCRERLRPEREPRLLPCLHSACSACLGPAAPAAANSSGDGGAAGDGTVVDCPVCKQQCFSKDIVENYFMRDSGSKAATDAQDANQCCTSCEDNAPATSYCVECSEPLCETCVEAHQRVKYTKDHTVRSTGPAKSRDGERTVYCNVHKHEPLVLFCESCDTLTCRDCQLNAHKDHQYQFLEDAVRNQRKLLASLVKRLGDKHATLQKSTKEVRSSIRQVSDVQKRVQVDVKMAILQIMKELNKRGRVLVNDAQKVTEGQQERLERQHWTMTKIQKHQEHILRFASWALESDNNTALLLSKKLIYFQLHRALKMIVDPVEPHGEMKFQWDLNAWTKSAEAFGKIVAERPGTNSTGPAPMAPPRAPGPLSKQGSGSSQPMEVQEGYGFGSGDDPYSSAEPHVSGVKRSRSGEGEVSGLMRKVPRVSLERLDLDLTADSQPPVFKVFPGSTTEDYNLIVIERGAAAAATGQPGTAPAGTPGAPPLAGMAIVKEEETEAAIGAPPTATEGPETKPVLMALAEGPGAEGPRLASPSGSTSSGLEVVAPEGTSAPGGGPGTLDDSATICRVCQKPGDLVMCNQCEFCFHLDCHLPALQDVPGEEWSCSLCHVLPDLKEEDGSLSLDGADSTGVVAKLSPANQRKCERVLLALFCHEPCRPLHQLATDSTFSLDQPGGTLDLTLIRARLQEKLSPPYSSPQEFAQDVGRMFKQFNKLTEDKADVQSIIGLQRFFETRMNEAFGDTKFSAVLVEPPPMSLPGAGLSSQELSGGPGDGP

For `Cn1cc(-n2cnc3c(NCc4nc5cc(Cl)c(Cl)cc5[nH]4)nc(N4CCOCC4)nc32)cn1`, the % of inhibition in assay [1] was -42%.

`Nc1cnc(N2CCc3cc(S(=O)(=O)Nc4c(F)cc(Cl)cc4F)cc(N4CCCC4=O)c32)nc1` [TP-020n]: the % of control in assay [2] and in assay [3] was 100% throughout. In the case of `CCc1cc(Nc2nccc(-c3c(-c4ccc(OC)c(C(=O)Nc5c(F)cccc5F)c4)nc4ccccn34)n2)c(OC)cc1N1CCC(N2CCN(S(C)(=O)=O)CC2)CC1`, the % of inhibition in assay [4] worked out at 52%. In turn, `Cc1cc(CN)cc(C)c1-c1ncn(C)c1-c1cncn1C` returned a dTM in assay [5] of -1.65 K. For `Cc1ccc(-c2ccc3c(ccc4sc5c(c43)NC[C@@H](C)NC5=O)n2)cn1`, the % of inhibition in assay [6] stood at 19%.
